Test results taken from patent US7998965B2, “Glutamate aggrecanase inhibitors” (Wyeth LLC, priority 2005, dated 2011).

Target: T1, purified recombinant human Aggrecanase-1 (rAgg1) (Homo sapiens, UniProt O75173)
T1 sequence (O75173 213-837): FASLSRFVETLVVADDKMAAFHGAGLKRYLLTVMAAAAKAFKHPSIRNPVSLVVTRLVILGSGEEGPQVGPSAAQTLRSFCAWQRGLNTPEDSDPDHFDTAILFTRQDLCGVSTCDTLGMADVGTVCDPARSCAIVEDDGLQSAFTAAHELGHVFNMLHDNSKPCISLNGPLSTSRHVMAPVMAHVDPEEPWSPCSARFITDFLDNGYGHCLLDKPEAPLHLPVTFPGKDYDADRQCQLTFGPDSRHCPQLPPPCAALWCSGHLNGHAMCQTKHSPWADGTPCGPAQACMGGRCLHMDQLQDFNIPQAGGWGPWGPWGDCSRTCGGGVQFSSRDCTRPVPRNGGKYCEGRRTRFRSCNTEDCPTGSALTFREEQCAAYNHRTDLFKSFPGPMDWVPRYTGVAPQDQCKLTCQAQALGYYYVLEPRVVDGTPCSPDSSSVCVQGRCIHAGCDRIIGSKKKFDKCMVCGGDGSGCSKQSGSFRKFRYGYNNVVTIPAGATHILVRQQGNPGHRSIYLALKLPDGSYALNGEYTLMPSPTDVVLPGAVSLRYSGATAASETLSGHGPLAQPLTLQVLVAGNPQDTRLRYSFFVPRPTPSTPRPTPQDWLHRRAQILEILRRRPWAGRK
Assay: In vitro fluorescence screen for Aggrecanase-1 inhibitors
Type: biochemical
Conditions: Table 1; read-out: Agg1 IC50

Compound | IC50 [µM]
CC(C)NC(=O)[C@H](CCC(=O)O)NC(=O)c1ccc(-c2ccccc2)cc1 [Example 8PPP, N^2-(biphenyl-4-ylcarbonyl)-N^1-isopropyl-L-α-glutamine] | 0.13
CCCCCCNC(=O)[C@H](CCC(=O)O)NC(=O)c1cccc2c1Cc1ccccc1-2 [Example 8PPPP, N^2-(9H-fluoren-1-ylcarbonyl)-N^1-hexyl-L-α-glutamine] | > 50
CCCCCCNC(=O)[C@H](CCC(=O)O)NC(=O)c1ccc(Oc2ccccc2)cc1 [Example 8QQQQ, N^1-hexyl-N^2-(4-phenoxybenzoyl)-L-α-glutamine] | 9.6
O=C(O)CC[C@H](NC(=O)c1ccc(-c2ccccc2)cc1)C(=O)Nc1ccccc1Cc1ccccc1 [Example 8QQQQQQ, N^1-(2-benzylphenyl)-N^2-(1,1′-biphenyl-4-ylcarbonyl)-L-α-glutamine] | 0.69
CCCCCCNC(=O)[C@H](CCC(=O)O)NC(=O)c1ccc2c(c1)C(=O)c1ccccc1-2 [Example 8RRRR, N^1-hexyl-N^2-[(9-oxo-9H-fluoren-2-yl)carbonyl]-L-α-glutamine] | 0.122
O=C(O)CC[C@H](NC(=O)c1ccc(-c2ccccc2)cc1)C(=O)NCCc1ccccc1F [Example 8TT, N^2-(biphenyl-4-ylcarbonyl)-N^1-[2-(2-fluorophenyl)ethyl]-L-α-glutamine] | 0.3
CC(C)(NC(=O)[C@H](CCC(=O)O)NC(=O)c1ccc(-c2ccccc2)cc1)c1ccccc1 [Example 8TTT, N^2-(biphenyl-4-ylcarbonyl)-N^1-(1-methyl-1-phenylethyl)-L-α-glutamine] | > 10
O=C(O)CC[C@H](NC(=O)c1ccc(-c2ccccc2)cc1)C(=O)NCCc1ccc(Cl)cc1 [Example 8UU, N^2-(biphenyl-4-ylcarbonyl)-N^1-[2-(4-chlorophenyl)ethyl]-L-α-glutamine] | 0.2
O=C(O)CC[C@H](NC(=O)c1ccc(Nc2ncccn2)cc1)C(=O)NCc1ccccc1 [Example 8UUUUUU, N^1-benzyl-N^2-[4-(pyrimidin-2-ylamino)benzoyl]-L-α-glutamine] | 4

Now from value to compound:

IC50 [µM] | Compound
0.29 | O=C(O)CC[C@H](NC(=O)c1ccc(-c2ccccc2)cc1)C(=O)NCc1ccco1 [Example 8P, N^2-(1,1′-biphenyl-4-ylcarbonyl)-N^1-(2-furylmethyl)-L-α-glutamine]
> 33 | COc1cccc(CNC(=O)[C@H](CCC(=O)O)NC(=O)Cc2ccc(-c3ccccc3)cc2)c1 [Example 8PPPPPP, N^2-(1,1′-biphenyl-4-ylacetyl)-N^1-(3-methoxybenzyl)-L-α-glutamine]
0.33 | O=C(O)CC[C@H](NC(=O)c1ccc(-c2ccccc2)cc1)C(=O)NCc1ccncc1 [Example 8QQQ, N^2-(biphenyl-4-ylcarbonyl)-N^1-(pyridin-4-ylmethyl)-L-α-glutamine]
3.6 | O=C(O)CC[C@H](NC(=O)c1ccc2ccccc2c1)C(=O)NCCCc1ccccc1 [Example 8RRRRRR, N^2-2-naphthoyl-N^1-(3-phenylpropyl)-L-α-glutamine]
> 200 | O=C(O)CC[C@H](NC(=O)c1ccc(C(=O)c2ccccc2)cc1)C(=O)NCc1ccccc1 [Example 8SSSS, N^2-(4-benzoylbenzoyl)-N^1-benzyl-L-α-glutamine]
0.146 | O=C(O)CC[C@H](NC(=O)c1ccc2c(c1)C(=O)c1ccccc1-2)C(=O)NCCCc1ccccc1 [Example 8SSSSSS, N^2-[(9-oxo-9H-fluoren-2-yl)carbonyl]-N^1-(3-phenylpropyl)-L-α-glutamine]
17.3 | O=C(O)CC[C@H](NC(=O)c1ccc(Oc2ccccc2)cc1)C(=O)NCCCc1ccccc1 [Example 8TTTTTT, N^2-(4-phenoxybenzoyl)-N^1-(3-phenylpropyl)-L-α-glutamine]
0.046 | O=C(O)CC[C@H](NC(=O)c1ccc2c(c1)Cc1ccccc1-2)C(=O)NCCCCCCO [Example 8VVVVVV, N^2-(9H-fluoren-2-ylcarbonyl)-N^1-(6-hydroxyhexyl)-L-α-glutamine]
